Data as given in PMC5707067, “Farnesyl phenolic enantiomers as natural MTH1 inhibitors from Ganoderma sinense” (Oncotarget, 2017).

Test system: human ES-2 ovarian carcinoma cells (ES-2)
Experiment: CCK8 cytotoxicity assay, ES-2
Format: cell-based
Conditions: Homo sapiens, Ovarian carcinoma cell; CCK8, 48 h, carcinoma cell line
Text: The growth inhibitory effects of the isolated farnesyl phenolic compounds (1–8) against carcinoma cell lines [human osteosarcoma cells (U2OS), human colorectal carcinoma cells (SW620), human ES-2 ovarian carcinoma cells (ES-2)] and normal tissue cell lines [human hepatic cells (Lo2), African green monkey kidney vero cells (Vero)] were further investigated using CCK8 assay method (Table 3).
Carcinoma cell lines [human osteosarcoma cells (U2OS), human colorectal carcinoma cells (SW620), human ES-2 ovarian carcinoma cells (ES-2)] and normal tissue cell lines [human hepatic cells (Lo2), African green monkey kidney Vero cells (Vero)] The U2OS, SW620, ES-2, Lo2 and Vero were obtained from ATCC (Manassas, VA, USA). The SW620 and Vero cells were cultured in Roswell Park Memorial Institute medium (RPMI), with 10% fetal bovine serum (Hyclone) and 1% penicillin-streptomycin (Sigma). Lo2, U2OS and ES-2 cells were grown in Dulbecco's modified eagle medium (DMEM), with 10% fetal bovine serum (Hyclone) and 1% penicillin-streptomycin (Sigma). All of these cells were cultured at 37°C in a humidified atmosphere with 5% CO2. For CCK8 assay cytotoxicity evaluation of compounds, all cells were separately plated at a density of 1 × 10^4 cells/well in a 96 well plate. Cells were cultivated at 37°C in 5% CO2 atmosphere for 24 h, then medium in the wells was replaced with fresh medium containing compounds which were diluted in 8 dilution steps covering the range from 200 μM to 1.5625 μM. And DMSO was used as negative control. After 48 h incubation, 10 μL of CCK8 solution was added to each well. After 30 min, the optical density (OD) of each well was measured at wavelength of 450 nm on spectrophotometer. Data were corrected for background (no-cell control) and expressed as a percentage of the value for untreated cells. The IC50 values of the isolated compounds were derived from the mean OD values of the triplicate tests versus the drug concentration curves.

CO[C@]1(c2cc(O)cc(O)c2)C=C(CCCC(CO)CC/C=C(\C)COC(=O)/C=C/c2ccc(O)cc2)C(=O)O1 (stereo partly drawn) [Compound 1, (5R)-3-{9-[(E)-coumaroyl]-4-hydroxymethyl-8-methyl-7-nonene}-5-(3,5-dihydroxyphenyl)-5-methoxy-2(5H)-furanone]
IC50: 55.5 ± 1.08 µM
